Measurements from the NIST ThermoML archive (doi:10.1021/acs.jced.7b00321).

Experiment: xn = mol fraction of the nth substance listed
Conditions: 101 kPa, Liquid; for viscosity: Capillary tube (Ostwald / Ubbelohde) method; for mass density: Vibrating tube method

NCCCO [3-amino-1-propanol] + CCO
Conditions	mass density, 293.15 K [kg/m3]	mass density, 303.15 K [kg/m3]	mass density, 313.15 K [kg/m3]	mass density, 323.15 K [kg/m3]	viscosity, 293.15 K [mPa·s]	viscosity, 303.15 K [mPa·s]	viscosity, 313.15 K [mPa·s]	viscosity, 323.15 K [mPa·s]
x1 = 0.101	820.04	812.33	802.78	795.11	1.77	1.41	1.18	0.97
x1 = 0.2008	847.98	839.91	830.23	822.21	2.7	2.05	1.63	1.32
x1 = 0.3001	871.99	863.77	854.17	846.08	4.06	2.97	2.29	1.79
x1 = 0.4006	894.28	885.95	876.32	867.97	6.22	4.43	3.25	2.49
x1 = 0.4999	914.13	905.74	896.28	887.91	9.34	6.31	4.53	3.33
x1 = 0.5994	932.46	923.63	914.45	906.05	13.88	8.89	6.17	4.35
x1 = 0.6993	948.72	940.08	931.32	922.79	19.55	12.09	8.08	5.52
x1 = 0.7999	963.35	954.73	946.49	938.29	26.29	15.91	10.18	6.82
x1 = 0.8998	975.98	967.76	959.83	951.35	32.9	19.96	12.86	8.29

NCCNCCO [N-(2-aminoethyl)ethanolamine] + CCO
Conditions	mass density, 293.15 K [kg/m3]	mass density, 303.15 K [kg/m3]	mass density, 313.15 K [kg/m3]	mass density, 323.15 K [kg/m3]	viscosity, 293.15 K [mPa·s]	viscosity, 303.15 K [mPa·s]	viscosity, 313.15 K [mPa·s]	viscosity, 323.15 K [mPa·s]
x1 = 0.1003	836.01	827.72	817.72	810.06	2.27	1.78	1.41	1.13
x1 = 0.2	876.03	866.47	856.04	847.84	4.21	3.09	2.35	1.79
x1 = 0.3	908.63	898.53	888.11	880.03	8.22	5.37	3.76	2.74
x1 = 0.4	935.65	925.07	915.04	906.65	14.62	9.08	6.08	4.22
x1 = 0.4997	957.92	947.38	937.71	929.72	24.18	14.41	9.37	6.19
x1 = 0.5996	976.58	966.68	957.44	949.14	36.92	21.51	13.45	8.75
x1 = 0.6992	992.84	983.3	974.42	966.36	55.46	31.16	18.74	11.65
x1 = 0.7994	1007.09	997.81	989.49	981.48	78.97	42.47	24.16	14.94
x1 = 0.9007	1019.25	1010.53	1002.88	995.08	107.09	56.14	31.76	18.8

NCCNCCN [di(2-aminoethyl)amine] + CCO
Conditions	mass density, 293.15 K [kg/m3]	mass density, 303.15 K [kg/m3]	mass density, 313.15 K [kg/m3]	mass density, 323.15 K [kg/m3]	viscosity, 293.15 K [mPa·s]	viscosity, 303.15 K [mPa·s]	viscosity, 313.15 K [mPa·s]	viscosity, 323.15 K [mPa·s]
x1 = 0.1	831.18	820.88	809.43	800.56	2.38	1.82	1.43	1.16
x1 = 0.1999	864.18	852.13	839.06	828.38	3.4	2.52	1.95	1.54
x1 = 0.3001	888.74	875.32	862.26	849.95	4.31	3.11	2.33	1.81
x1 = 0.4	905.98	892.48	879.84	866.96	5.06	3.57	2.64	2.03
x1 = 0.4998	918.77	905.55	893.25	881.28	5.59	3.93	2.89	2.2
x1 = 0.6001	928.75	915.84	904.57	892.92	6.05	4.19	3.06	2.31
x1 = 0.6992	936.55	924.86	913.73	903.03	6.39	4.38	3.15	2.37
x1 = 0.7998	943.08	931.95	921.49	911.41	6.61	4.53	3.26	2.45
x1 = 0.9007	948.15	937.76	928.32	918.94	6.8	4.65	3.31	2.5

CC(O)CN (stereo not drawn) [1-amino-2-propanol] + CCO
Conditions	mass density, 293.15 K [kg/m3]	mass density, 303.15 K [kg/m3]	mass density, 313.15 K [kg/m3]	mass density, 323.15 K [kg/m3]	viscosity, 293.15 K [mPa·s]	viscosity, 303.15 K [mPa·s]	viscosity, 313.15 K [mPa·s]	viscosity, 323.15 K [mPa·s]
x1 = 0.1009	815.54	807.78	798.04	790.57	1.69	1.35	1.1	0.9
x1 = 0.2	839.35	830.91	821.03	813.16	2.38	1.83	1.45	1.16
x1 = 0.3015	860.99	852.05	842.37	834.09	3.39	2.51	1.91	1.49
x1 = 0.3999	879.64	870.63	860.91	852.56	4.74	3.38	2.49	1.89
x1 = 0.4999	896.77	887.58	878.08	869.65	6.61	4.53	3.23	2.39
x1 = 0.5992	912.21	903.08	893.58	885.11	9.15	6.04	4.17	3.01
x1 = 0.6996	926.22	917.08	907.84	899.63	12.64	8.01	5.35	3.76
x1 = 0.7998	938.83	929.86	921.21	912.9	17.3	10.53	6.84	4.7
x1 = 0.8995	950.36	941.55	933.29	924.97	23.42	13.8	8.64	5.75
